Reference: patent US20120142580A1, “OPIOID RECEPTORS STIMULATING COMPOUNDS (THYMOQUINONE, NIGELLA SATIVA) AND FOOD ALLERGY” (NESTEC S.A., priority 2009, published 2012)

What was measured:
OVA-sensitized mice = test: Murine model of OVA-induced allergic diarrhea: diarrhea scores; type: in vivo, Balb/c mice
From the text: Male Balb/c mice were sensitized by intraperitoneal injection of ovalbumin (OVA) together with aluminium potassium sulphate.
(§1) Briefly, following sensitization (2 intraperitoneal injections of OVA and aluminium potassium sulphate at an interval of 14 days) adult male Balb/c mice were orally challenged with OVA for 6 times (days 28, 30, 33, 35, 37, 40) resulting in transient clinical symptoms (diarrhea) and changes of immune parameters (plasma concentration of total IgE, OVA specific IgE, mouse mast cell protease 1 (MMCP-1) as well as Th2 type cytokine production of ex vivo OVA re-stimulated mesenteric lymphocytes (MLN)). Substances, to be tested, were administered either by subcutaneous injection (thymoquinone and naloxone methiodide according to the literature) or by gavage (Nigella sativa extract).

δ-hOR = δ-hOR (Homo sapiens, UniProt P41143); test: Ligand displacement from δ-opioid receptor; type: binding; settings: 100 μM
κ-hOR = κ-hOR (Homo sapiens, UniProt P41145); test: Ligand displacement from κ-opioid receptor; type: binding; settings: 100 μM
[1] = test system: mouse mast cell protease 1 (MMCP-1); test: Murine model of OVA-induced allergic diarrhea: plasma MMCP-1; type: in vivo, Balb/c mice; settings: thymoquinone study; 4th challenge; FIG. 2
From the text: as §1
At large the MMCP-1 concentration in plasma correlates with the number of mast cells in the tissue which are known to be key players of diarrhea development in this mouse model (Brandt, E. B., et al., 2003, J. Clin. Invest 112, 1666-1677).

μ-hOR = μ-hOR (Homo sapiens, UniProt P35372); test: Ligand displacement from μ-opioid receptor; type: binding; settings: 100 μM
Chain of μ-hOR (P35372 whole entry): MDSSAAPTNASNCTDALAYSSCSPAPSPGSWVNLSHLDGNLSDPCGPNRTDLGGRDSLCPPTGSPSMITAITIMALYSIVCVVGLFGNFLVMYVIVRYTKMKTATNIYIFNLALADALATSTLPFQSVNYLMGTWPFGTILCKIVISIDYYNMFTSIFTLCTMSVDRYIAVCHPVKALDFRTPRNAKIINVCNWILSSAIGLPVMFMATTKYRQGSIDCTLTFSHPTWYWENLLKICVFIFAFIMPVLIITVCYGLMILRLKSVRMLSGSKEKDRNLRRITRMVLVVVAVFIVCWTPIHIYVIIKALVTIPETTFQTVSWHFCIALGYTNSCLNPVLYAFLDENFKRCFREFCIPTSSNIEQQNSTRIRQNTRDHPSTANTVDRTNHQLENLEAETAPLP

Chain of δ-hOR (P41143 whole entry): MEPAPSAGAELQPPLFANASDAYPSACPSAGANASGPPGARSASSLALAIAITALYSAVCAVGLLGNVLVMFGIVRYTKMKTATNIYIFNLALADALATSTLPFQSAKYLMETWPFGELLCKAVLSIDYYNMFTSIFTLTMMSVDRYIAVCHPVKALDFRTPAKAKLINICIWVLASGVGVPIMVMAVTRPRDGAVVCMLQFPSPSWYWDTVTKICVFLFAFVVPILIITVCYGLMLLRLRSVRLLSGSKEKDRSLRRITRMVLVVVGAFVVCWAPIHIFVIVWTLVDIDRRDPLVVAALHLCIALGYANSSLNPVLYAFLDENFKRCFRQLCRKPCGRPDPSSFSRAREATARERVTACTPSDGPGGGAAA
Chain of κ-hOR (P41145 whole entry): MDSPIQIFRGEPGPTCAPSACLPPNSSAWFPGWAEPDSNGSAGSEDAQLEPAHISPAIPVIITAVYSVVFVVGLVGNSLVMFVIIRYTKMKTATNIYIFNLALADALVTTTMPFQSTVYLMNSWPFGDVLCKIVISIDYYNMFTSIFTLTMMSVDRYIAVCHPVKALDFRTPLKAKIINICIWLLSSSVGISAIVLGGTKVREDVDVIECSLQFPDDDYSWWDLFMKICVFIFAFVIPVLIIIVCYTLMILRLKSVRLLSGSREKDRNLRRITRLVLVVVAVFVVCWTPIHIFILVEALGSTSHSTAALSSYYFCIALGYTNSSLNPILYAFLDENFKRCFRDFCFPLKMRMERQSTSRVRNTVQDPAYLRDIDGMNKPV

Row | Compound | diarrhea score (Median ±RobustSD) (OVA-sensitized mice; 3rd challenge, FIG. 3, OVA control 1±1.2) | diarrhea score (Median ±RobustSD) (OVA-sensitized mice; 4th challenge, FIG. 3, OVA control 2±3.6) | diarrhea score (Median ±RobustSD) (OVA-sensitized mice; 5th challenge, FIG. 3, OVA control 4±0) | diarrhea score (Median ±RobustSD) (OVA-sensitized mice; 6th challenge, FIG. 3, OVA control 4.5±1.2) | δ-hOR % ligand displacement (δ-hOR) [%] | κ-hOR % ligand displacement (κ-hOR) [%] | plasma MMCP-1 compared to non-treated OVA challenged controls [1] | μ-hOR % ligand displacement (μ-hOR) [%] | diarrhea score (Median ±RobustSD) (OVA-sensitized mice; OVA-challenged mice treated with thymoquinone (subcutaneous), after 6th challenge, FIG. 1, OVA control 5±0) | clinical symptoms compared to non-treated mice (OVA-sensitized mice; thymoquinone 4 days prior to sensitization and during challenge period, after 6th challenge)
1 | C=CC[N+]1(C)CC[C@]23c4c5ccc(O)c4O[C@H]2C(=O)CC[C@@]3(O)[C@H]1C5.[I-] (stereo partly shown) [Naloxone, naloxone methiodide] | 2±1.2 | 3.5±1.2 | 4±0 | 5±0 | – | – | – | – | – | –
2 | CC1=CC(=O)C(C(C)C)=CC1=O [Thymoquinone, 2-Isopropyl-5-methyl-1,4-benzoquinone] | – | – | – | – | 48 | 37 | significantly lower | 45 | 3±1.79 | significantly improve
